The values that follow come from PubChem BioAssay AID248 (DTP/NCI, 2004).

Several values for one entry are separate records, joined by “and”; a condition that tells them apart may be missing. Equal entries are not always repeated. Toxic doses and inconclusive results are not listed.

In the experiment the test system is L1210 leukemia ip in BDF1 mice, survival T/C. Put plainly: NCI In Vivo Anticancer Drug Screen. Data for tumor model L1210 Leukemia (intraperitoneal) in B6D2F1 (BDF1) mice. The settings on record: endpoint: mean survival time, higher = longer survival. The gist of the method: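 Transplantable tumor model; survival measured in treated vs vehicle control mice. Value = treated/control.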

[1] abbreviates: dose: 100.0 mg/kg/injection, schedule: Q01DX001 (ip), vehicle: saline with Tween-80.
Where [2] appears, read: dose: 400.0 mg/kg/injection, schedule: Q04DX003 (ip), vehicle: Klucel (hydroxypropylcellulose) (HPC).
[3] abbreviates: dose: 100.0 mg/kg/injection, schedule: Q01DX009 (ip), vehicle: Klucel (hydroxypropylcellulose) (HPC).
Setting [4] is: dose: 200.0 mg/kg/injection, schedule: Q01DX009 (ip), vehicle: Klucel (hydroxypropylcellulose) (HPC).
The mark [5] stands for this setting: dose: 400.0 mg/kg/injection, schedule: Q01DX009 (ip), vehicle: Klucel (hydroxypropylcellulose) (HPC).
[6] abbreviates: dose: 100.0 mg/kg/injection, schedule: Q04DX002 (ip), vehicle: saline with Tween-80.
Setting [7] is: dose: 200.0 mg/kg/injection, schedule: Q04DX002 (ip), vehicle: saline with Tween-80.
[8] abbreviates: dose: 200.0 mg/kg/injection, schedule: Q01DX001 (ip), vehicle: saline with Tween-80.
The mark [9] stands for this setting: dose: 100.0 mg/kg/injection, schedule: Q01DX001 (ip), vehicle: saline.
[10] abbreviates: dose: 100.0 mg/kg/injection, schedule: Q04DX003 (ip), vehicle: saline with Tween-80.
Where [11] appears, read: dose: 200.0 mg/kg/injection, schedule: Q04DX003 (ip), vehicle: saline with Tween-80.
The mark [12] stands for this setting: dose: 400.0 mg/kg/injection, schedule: Q04DX003 (ip), vehicle: saline with Tween-80.
[13] abbreviates: dose: 100.0 mg/kg/injection, schedule: Q01DX009 (ip), vehicle: saline with Tween-80.

Regarding `CN1CCN(c2ccccc2)CC1`, the T/C is 168 % of control (dose: 25.0 mg/kg/injection, schedule: Q01DX001 (ip), vehicle: saline with Tween-80); 98 % of control (dose: 50.0 mg/kg/injection, schedule: Q01DX001 (ip), vehicle: saline with Tween-80); 196 % of control under setting [1].
Regarding `O=C(c1ccncc1)n1cc2c(n1)CCCC2`, the T/C is, setting by setting: (dose: 100.0 mg/kg/injection, schedule: Q04DX003 (ip), vehicle: Klucel (hydroxypropylcellulose) (HPC)) 87 % of control; (dose: 200.0 mg/kg/injection, schedule: Q04DX003 (ip), vehicle: Klucel (hydroxypropylcellulose) (HPC)) 92 % of control; under setting [2], 95 % of control.
As for `O=C1C=CC(=O)N1C(=O)NC(I)NC(=O)N1C(=O)C=CC1=O`, the T/C (dose: 100.0 mg/kg/injection, schedule: Q01DX001 (ip), vehicle: carboxymethylcellulose (CMC)) is 94 % of control; the T/C (dose: 200.0 mg/kg/injection, schedule: Q01DX001 (ip), vehicle: carboxymethylcellulose (CMC)) was 98 % of control; the T/C (dose: 400.0 mg/kg/injection, schedule: Q01DX001 (ip), vehicle: carboxymethylcellulose (CMC)) was 100 % of control.
Take `CC1(C)N=C(N)N=C(N)N1c1cccc(CNc2ccccc2)c1`: the T/C runs as follows: (dose: 3.12 mg/kg/injection, schedule: Q01DX001 (ip), vehicle: saline) 95 % of control; (dose: 6.25 mg/kg/injection, schedule: Q01DX001 (ip), vehicle: saline) 103 % of control; (dose: 12.5 mg/kg/injection, schedule: Q01DX001 (ip), vehicle: saline) 98 % of control; (dose: 25.0 mg/kg/injection, schedule: Q01DX001 (ip), vehicle: saline) 93 % of control.
As for `COc1ccc(/C=N/NC(=S)Nc2ccccc2)cc1`, the T/C was 103 % of control under setting [3], 95 % of control under setting [4] and 108 % of control under setting [5].
With `O=P1(c2ccccc2)C=C(Cl)CC1` (stereo not drawn), the T/C is 96 % of control (dose: 75.0 mg/kg/injection, schedule: Q01DX001 (ip), vehicle: saline) and 107 % of control (dose: 150.0 mg/kg/injection, schedule: Q01DX001 (ip), vehicle: saline).
Consider `CSc1ccc(NC(=O)Oc2ccc(NC(C)=O)cc2)cc1`, for which the T/C runs as follows: under setting [3], 98 % of control; under setting [4], 106 % of control; under setting [5], 98 % of control.
With `CC#CCCC(=O)OCCCCC`, the T/C runs as follows: under setting [6], 97 % of control; under setting [7], 102 % of control.
On to `O=[N+]([O-])c1ccc(OP(=O)(Oc2ccc([N+](=O)[O-])cc2)Oc2ccc([N+](=O)[O-])cc2)cc1`, for which the T/C is 97 % of control and 107 % of control (dose: 100.0 mg/kg/injection, schedule: Q04DX003 (ip), vehicle: gum acacia); 92 % of control and 103 % of control (dose: 200.0 mg/kg/injection, schedule: Q04DX003 (ip), vehicle: gum acacia); 94 % of control and 95 % of control (dose: 400.0 mg/kg/injection, schedule: Q04DX003 (ip), vehicle: gum acacia).
For the molecule `CC(=O)Oc1ccc2ncccc2c1Cc1c(OC(C)=O)ccc2ncccc12`, the T/C is 91 % of control (dose: 75.0 mg/kg/injection, schedule: Q04DX003 (ip), vehicle: saline); 95 % of control (dose: 150.0 mg/kg/injection, schedule: Q04DX003 (ip), vehicle: saline); 95 % of control (dose: 300.0 mg/kg/injection, schedule: Q04DX003 (ip), vehicle: saline).
Regarding `CC1CCC2(C)CCC3(C)C(=CCC4C5(C)CCC(OC(=O)c6ccccc6)C(C)(C)C5CCC43C)C2C1C` (stereo not drawn), the T/C is 96 % of control under setting [1] and 102 % of control under setting [8].
Take `CN(C)/N=N/c1[nH]ncc1C(N)=O`: the T/C is 113 % of control under setting [9]; 176 % of control (dose: 108.0 mg/kg/injection, schedule: Q01DX009 (ip), vehicle: saline); 110 % of control (dose: 300.0 mg/kg/injection, schedule: Q01DX009 (ip), vehicle: saline); 156 % of control (dose: 600.0 mg/kg/injection, schedule: Q01DX001 (ip), vehicle: saline).
Regarding `O=c1c(CO)c[nH]cc1CO`, the T/C is, setting by setting: under setting [9], 101 % of control; (dose: 200.0 mg/kg/injection, schedule: Q01DX001 (ip), vehicle: saline) 103 % of control; (dose: 400.0 mg/kg/injection, schedule: Q01DX001 (ip), vehicle: saline) 107 % of control.
Regarding `COc1cc(C(=O)O)cc(OC)n1`, the T/C reads like this: under setting [10], 102 % of control; under setting [11], 96 % of control; under setting [12], 96 % of control.
`CN(C)/N=N/c1nc(Cc2ccccc2)[nH]c1C(N)=O`: the T/C under setting [3] was 108 % of control; the T/C (dose: 177.0 mg/kg/injection, schedule: Q01DX009 (ip), vehicle: Klucel (hydroxypropylcellulose) (HPC)) is 116 % of control; the T/C under setting [4] is 112 % of control; the T/C (dose: 266.0 mg/kg/injection, schedule: Q01DX009 (ip), vehicle: Klucel (hydroxypropylcellulose) (HPC)) is 122 % of control; the T/C (dose: 266.0 mg/kg/injection, schedule: Q04DX003 (ip), vehicle: Klucel (hydroxypropylcellulose) (HPC)) is 109 % of control; the T/C under setting [5] is 155 % of control. The T/C under setting [2] was 109 % of control and the T/C (dose: 600.0 mg/kg/injection, schedule: Q04DX003 (ip), vehicle: Klucel (hydroxypropylcellulose) (HPC)) is 106 % of control.
As for `O=C(CCl)Oc1ccccc1`, the T/C was 94 % of control (dose: 50.0 mg/kg/injection, schedule: Q01DX009 (ip), vehicle: saline with Tween-80); 87 % of control under setting [13]; 101 % of control under setting [10]; 96 % of control under setting [11].
As to `CC(=O)OC1CC2(CO2)C2CC3OC3(C)C2C2OC(=O)C(C)C12` (stereo not drawn), the T/C was 95 % of control (dose: 12.5 mg/kg/injection, schedule: Q04DX002 (ip), vehicle: saline); 92 % of control (dose: 25.0 mg/kg/injection, schedule: Q04DX002 (ip), vehicle: saline); 110 % of control (dose: 50.0 mg/kg/injection, schedule: Q04DX002 (ip), vehicle: saline); 97 % of control (dose: 75.0 mg/kg/injection, schedule: Q04DX002 (ip), vehicle: saline); 95 % of control (dose: 100.0 mg/kg/injection, schedule: Q04DX002 (ip), vehicle: saline); 104 % of control (dose: 115.0 mg/kg/injection, schedule: Q04DX002 (ip), vehicle: saline). The T/C was 104 % of control (dose: 170.0 mg/kg/injection, schedule: Q04DX002 (ip), vehicle: saline); 110 % of control (dose: 200.0 mg/kg/injection, schedule: Q04DX002 (ip), vehicle: saline); 95 % of control (dose: 400.0 mg/kg/injection, schedule: Q04DX002 (ip), vehicle: saline).
Consider `O=C(CCNC(=O)OCc1ccccc1)NCC(=O)OCc1ccccc1`, for which the T/C reads like this: under setting [10], 103 % of control; under setting [11], 97 % of control; under setting [12], 92 % of control.
Consider `CCCCOCC(C)O` (stereo not drawn), for which the T/C (dose: 100.0 mg/kg/injection, schedule: Q04DX003 (ip), vehicle: saline) is 91 % of control; the T/C (dose: 200.0 mg/kg/injection, schedule: Q04DX003 (ip), vehicle: saline) is 96 % of control; the T/C (dose: 400.0 mg/kg/injection, schedule: Q04DX003 (ip), vehicle: saline) was 96 % of control.
For the molecule `O=S(=O)(Nc1nccs1)c1ccc(NN=Nc2c(Cl)cc(Cl)cc2Cl)cc1`, the T/C reads like this: under setting [3], 96 % of control; under setting [4], 96 % of control; under setting [5], 97 % of control.
For `Cc1cc2c(cc1C)C(=O)CCC2`, the T/C under setting [1] is 97 % of control; the T/C under setting [13] is 109 % of control; the T/C under setting [6] was 88 % of control; the T/C under setting [10] is 97 % of control; the T/C under setting [8] was 97 % of control; the T/C (dose: 200.0 mg/kg/injection, schedule: Q01DX009 (ip), vehicle: saline with Tween-80) was 109 % of control. Also, the T/C is 90 % of control under setting [7]; 98 % of control under setting [11]; 91 % of control (dose: 400.0 mg/kg/injection, schedule: Q01DX001 (ip), vehicle: saline with Tween-80); 115 % of control (dose: 400.0 mg/kg/injection, schedule: Q01DX009 (ip), vehicle: saline with Tween-80); 90 % of control (dose: 400.0 mg/kg/injection, schedule: Q04DX002 (ip), vehicle: saline with Tween-80); 95 % of control under setting [12].
